Data reported in patent US3935229A, “Esters of 2-[(4-quinolyl)amino]-benzoic acids” (Synthelabo, priority 1973, dated 1976).
Structures can show the parent of a compound that is named as a salt.

Columns and labels:
[1] = tested on: mice of both sexes, of the Swiss strain; test: in vivo; conditions: mice, oral administration
Method: Tests were carried out on mice of both sexes, of the Swiss strain, of average weight 20 g. (± 2g.).

[2] = tested on: pain induced, in Swiss mice, by the intraperitoneal injection of phenylquinone; test: Siegmund test (analgesic effect against pain induced by intraperitoneal phenylquinone); assay type: in vivo; conditions: for ED50: Mus musculus, po, read-out: Siegmund test AD50 (50% active dose), mice, oral administration
Description: 1. Effect against pain induced, in Swiss mice, by the intraperitoneal injection of phenylquinone, in accordance with the experimental procedure of Siegmund (Proc. Soc. Exp. Biol. Med., 1957, 95, 729), modified by Cheymol (C.R. Soc. Biol., 1963, 157, 521) and Brittain (Nature, London, 1963, […], 895).

[3] = tested on: carragenine-induced oedema of the paw, Sherman rats; test: Carragenine-induced oedema test (oedema of the paw); assay type: in vivo; conditions: Rattus norvegicus, po, read-out: Carragenine-induced oedema test AD (AD40 = 40% active dose)
[4] = tested on: heated plate test, Swiss mice; test: Heated plate test (plate heated by acetone vapours; analgesic effects of the central type); conditions: oral

Row | SMILES | Acute toxicity LD50 (50% lethal dose) ([1]; dihydrochloride) | ED50 [2] [mg/kg] | analgesic effects of the peripheral type (Siegmund test), compared with amidopyrine and glafenine ([2]; mice, oral, versus amidopyrine and glafenine) | ED40 [3] [mg/kg] | analgesic effects of the central type (heated plate test), compared with amidopyrine ([4]; versus amidopyrine) | extent of the greater activity than amidopyrine in the heated plate test ([4]; versus amidopyrine) | Acute toxicity LD50 (50% lethal dose) [1] | central component of the analgesic effect (heated plate test) [4]
1 | O=C(OCCN1CCN(c2cccc(C(F)(F)F)c2)CC1)c1ccccc1Nc1ccnc2cc(C(F)(F)F)ccc12 [Compound 73-017, 2-(4'-m-trifluoromethylphenyl-piperazino)-ethyl 2-(7'-trifluoromethyl-4'-quinolyl-amino)-benzoate dihydrochloride] | 1,500 mg/kg | 4 | generally much more active | 60 | greater than that of amidopyrine | considerable |  | 
2 | O=C(OCC(O)CO)c1ccccc1Nc1ccnc2cc(Cl)ccc12 (stereo not shown) [Glafenine, reference compound] |  | 50 |  | 30 |  |  | 3,500 mg/kg | much less strong
